Key:
Test in all cases: Western blot of rat lung tissue after inhaled 13-cis RA
Format in all cases: in vivo
RAR β = details: for upregulating expression of lung tissue RAR (β): daily deposited dose of 6.4mg/kg/day
Experimental: (§1) Rats (n=97) (Sprague-Dawley from Charles River) were divided into five experimental groups and were given varying amounts of 13-cis RA by inhalation. The experimental groups were as follows (Table 4) :1.Vehicle (10/9 mix of PEG 300 and Ethanol with 0.5% of ascorbic acid and 0.5% phosphatidyl choline) control, day 1: rats (19) inhaled vehicle for 2 hr for one day; 2. High dose 13-cis RA, day 1: rats (22) inhaled a solution containing 13-cis-RA at a concentration of 104µg/liter (projected daily inhaled dose 10mg/kg body weight) for 2 hr for one day; 3. High dose 13-cis RA, day 17: rats (22) inhaled the same solution as in 2 for 2 hr each day for 17 days; 4. Vehicle control, day 28: rats (16) inhaled vehicle as for group 1 for a period of 28 days; 5. Middle dose 13-cis RA, day 28: rats (18) inhaled a solution containing 13-cis-RA at a concentration of 31µg/liter (projected daily inhaled dose 3mg/kg body weight) for 2 hr for each of 28 days.
(§2) Male rats (n=23) (Sprague-Dawley from Charles River) were divided into six experimental groups and were given varying amounts of 13-cis RA through an inhalant apparatus once daily for different times each day for 14 days. The experimental groups were as follows (Table 1) :1.Vehicle control : rats (3) inhaled vehicle for 240 minutes; 2. Low dose 13-cis RA: rats (4) inhaled a solution containing 13-cis RA at a concentration of 62.2µg/liter (inhaled dose 115.0µg/kg body weight) in 5 minutes; 3. Low-Middle dose 13-cis RA : rats (4) inhaled a solution containing 13-cis RA at a concentration of 62.2µg/liter (inhaled dose 334.4µg/kg body weight) in 15 minutes; 4.Middle dose 13-cis RA: rats (4) inhaled a solution containing 13-cis RA at a concentration of 62.2µg/liter (inhaled dose 1012.3µg/kg body weight) in 45 minutes; 5. Middle-High dose 13-cis RA : rats (4) inhaled a solution containing 13-cis RA at a concentration of 62.2µg/liter (inhaled dose 2843.4µg/kg body weight) in 120 minutes; 6. High dose 13-cis RA : rats (4) inhaled a solution containing 13-cis RA at a concentration of 62.2µg/liter (inhaled dose 5935.6µg/kg body weight) in 240 minutes.
(§3) Polyclonal rabbit anti-mouse antibodies against RAR, and (SANTA CRUZ Biotechnology Inc., San Francisco, CA) were used. BM Chemiluminescense Western Blotting Kit (Mouse/Rabbit) was used (Boehringer Mannheim Corporation, Indianapolis) for the Westerns.
(§4) Tissues were collected, frozen in dry ice and kept at -70°C until used. 500mg aliquots were diced in small pieces and homogenized in 300µl of cold PBS, using the hand held homogenizer for 2~3 minutes. Sample and washes were centrifuged at 5000xg for 20 minutes. The pellet was suspended in 400 µl of ice-cold Buffer A [2µl 0.5M EDTA, 10µl 100mM EGTA, 50µl 100mM PMSF, 10µl 1M DTT, 10ml (10mM HEPES pH 7.9 + 10mM KCl)], and left at ice temperature for 15 minutes. 25 µl of 10% solution of NP-40 was added and samples were mixed in a vortex vigorously for 10 seconds. Samples were centrifuged at 14,000xg for 1 minute at 4°C and the pellet treated once more in this fashion (resuspended etc.). The supernatant was removed and 100µl of ice-cold Buffer C [4µl 0.5M EDTA, 20µl 100mM EGTA, 20µl 100mM PMSF, 2µl 1 M DTT, 2ml (20mM HEPES pH 7.9 + 0.4M NaCl)] was added. Pellets were resuspended by tapping gently on the bottom of the Eppendorf tubes. Samples were rocked vigorously in a bucket of ice on an orbital shaker for 30 minutes. Samples were centrifuged at 14,000 xg for 5 minutes at 4°C. Protein determination of supernatant was conducted by the Bradford method.
(§5) Samples were prepared by adding one part of the Sample Buffer to one part of the sample and mixing well. Samples were heated at 95°C for 5 minutes to induce denaturation. 5µl of Rainbow Standard and 5µl ofBiotinylated Molecular Marker were added to parallel wells. 20µg protein per sample was loaded in each lane. Electrophoresis was performed with voltage set at 125V for about 1 ~ 1.5 hours. Gel transfer was executed at 25V for 2 hours. […]

RAR α = details: for upregulating expression of lung tissue RAR (α): daily deposited dose of 6.4mg/kg/day
Experimental: as §1, §2, §3, §4, §5

RAR γ = details: for upregulating expression of lung tissue RAR (γ): daily deposited dose of 6.4mg/kg/day
Experimental: as §1, §2, §3, §4, §5

[1] = daily deposited dose of 1.9mg/kg/day, day 28

**Q.** Which “lung RAR (β) induced” value (RAR β; [1]) does the source give for CC1=C(/C=C/C(C)=C/C=C/C(C)=C\C(=O)O)C(C)(C)CCC1 [13-cis RA, 13-cis-Retinoic Acid] here?
**A.** Its value is 8.0 fold.

**Q.** And the “upregulating expression of lung tissue RAR (β)” value (RAR β; day 1)?
**A.** The value was 7.2 fold.

**Q.** And the “upregulating expression of lung tissue RAR (β)” value (RAR β; day 17)?
**A.** The value was 10.0 fold.

**Q.** What about the “lung RAR (α) induced” value (RAR α; [1]) of the same compound?
**A.** Its value is 4.7 fold.

**Q.** And the “upregulating expression of lung tissue RAR (α)” value (RAR α; day 1)?
**A.** Its value is 3.4 fold.

**Q.** And the “upregulating expression of lung tissue RAR (α)” value (RAR α; day 17)?
**A.** Its value is 4.2 fold.

**Q.** What about the “lung RAR (γ) induced” value (RAR γ; [1]) of the same compound?
**A.** The value was 8.1 fold.

**Q.** What about the “upregulating expression of lung tissue RAR (γ)” value (RAR γ; day 1) of the same compound?
**A.** Its value is 9.7 fold.

**Q.** And the “upregulating expression of lung tissue RAR (γ)” value (RAR γ; day 17)?
**A.** Its value is 12.9 fold.
